Results reported in PubChem BioAssay (NCI).
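Values below derive from 48-hour exposures of cells grown in 96-well plates, with endpoints linearly interpolated between the two concentrations bracketing the appropriate inhibition level. Definition used: TGI = concentration required for complete inhibition of growth.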

These compounds were tested on COLO 205 colon (assay: DTP human tumour cell line panel, 48 h).
`CCCCCCCCCCCCCCCCNC(=O)/C(=C\c1ccc(Cl)c(Cl)c1)NC(=O)c1ccccc1` showed a TGI of over 100 µM. `O=C(Nc1ccccc1)OCCN=C1c2ccccc2CCc2ccccc21` gave a TGI of 33.1 µM. With `COc1cc2cc(C(=O)N3CC(CCl)c4ccc([N+](C)(C)Cc5ccccc5[N+](=O)[O-])cc43)[nH]c2c(OC)c1OC` (stereo unspecified) the TGI was 14.9 µM. Work on `CC(C)[C@H]1NC(=O)[C@H]2N=C(S[C@H]2C)[C@@H]2CCCN2C(=O)[C@H](Cc2ccccc2)NC(=O)[C@@H]2CSC(=N2)[C@@H](Cc2ccccc2)NC(=O)[C@@H]2CSC1=N2` yielded a TGI of over 50 µM. `COC(=O)/C=C/[C@@H]1[C@H](C)N1S(=O)(=O)c1ccc(C)cc1` (stereo partly specified) gave a TGI of over 100 µM. `O=C1Oc2ccccc2C(=O)/C1=C/N1C(=O)CNC1=S` gave a TGI of over 100 µM. `Cc1nn(C(=O)c2ccncc2)c2c1C(c1ccccc1[N+](=O)[O-])SC(N)=N2` (stereo unspecified) showed a TGI of over 10 µM. For `Cn1nnc2c3c(N(CCO)CCO)ccnc3ccc21`, the TGI was over 100 µM. Work on `Cc1ccc(S(=O)(=O)N2CCSCCSCCSCCN(S(=O)(=O)c3ccc(C)cc3)CC2)cc1` yielded a TGI of over 100 µM. With `CCCc1nc2c(n1CC)C(=O)c1ccccc1C2=O` the TGI was over 100 µM. For `C1CCCN(NC2=NCCO2)CC1`, the TGI was over 100 µM. In the case of `O=C1NCN(c2ccccc2)C12CCN(CC1COc3ccccc3O1)CC2` (stereo unspecified), the TGI is reported as over 100 µM. In the case of `O=C1OC([C@H](O)c2cccnc2)c2ccccc21` (stereo partly specified), the TGI is reported as over 10 µM. `CC(C)(C)O/N=C/c1cc(NC(=S)c2ccsc2)ccc1Cl` gave a TGI of 28.3 µM. `CC(=O)/C(=C\I)c1ccccc1` showed a TGI of 3.14 µM. `C=CCN1CCC(c2cc(C(=O)OCC)[nH]c2-c2cc(C)no2)C1=O` (stereo unspecified) gave a TGI of over 100 µM. Work on `CC(=O)N1C(Nc2nccs2)CCN1c1ccccc1` (stereo unspecified) yielded a TGI of over 10 µM. `Cc1cc(NS(=O)(=O)c2ccc(N=[N+]([O-])c3ccc(S(=O)(=O)Nc4cc(C)on4)cc3)cc2)no1` was tested, and the TGI was over 100 µM. With `Cc1ccc(S(=O)(=O)N/N=C2/CCC3(O)CC2(C)CCC2[C@H]3CC2(C)C)cc1` (stereo partly specified) the TGI was 33.1 µM. With `CC(C)OP(=O)(OC(C)C)C(C)(C)O` the TGI was over 100 µM. In the case of `Cc1cn(C2CC(N=[N+]=[N-])C(COP(=O)(O)OCC3OC(n4cc(F)c(=O)[nH]c4=O)CC3O)O2)c(=O)[nH]c1=O` (stereo unspecified), the TGI is reported as over 100 µM. With `NC(=O)[N+](=CC(=S)Nc1ccccc1Cl)C(N)=O` the TGI was over 100 µM.

The compounds below were run on MOLT-4 leukemia (assay: DTP human tumour cell line panel, 48 h).
For `CCCCCCCCCCCCCCCCNC(=O)/C(=C\c1ccc(Cl)c(Cl)c1)NC(=O)c1ccccc1`, the TGI was 37.5 µM. For `O=C(Nc1ccccc1)OCCN=C1c2ccccc2CCc2ccccc21`, the TGI was 31.1 µM. Work on `COc1cc2cc(C(=O)N3CC(CCl)c4ccc([N+](C)(C)Cc5ccccc5[N+](=O)[O-])cc43)[nH]c2c(OC)c1OC` (stereo unspecified) yielded a TGI of 2.74 µM. In the case of `CC(C)[C@H]1NC(=O)[C@H]2N=C(S[C@H]2C)[C@@H]2CCCN2C(=O)[C@H](Cc2ccccc2)NC(=O)[C@@H]2CSC(=N2)[C@@H](Cc2ccccc2)NC(=O)[C@@H]2CSC1=N2`, the TGI is reported as 29.5 µM. `COC(=O)/C=C/[C@@H]1[C@H](C)N1S(=O)(=O)c1ccc(C)cc1` (stereo partly specified) gave a TGI of over 100 µM. Work on `COc1cc([C@@H]2c3cc4c(cc3[C@@H](Nc3ccc(Cl)cc3C(=O)c3ccccc3)[C@H]3COC(=O)[C@H]23)OCO4)cc(OC)c1OC` yielded a TGI of over 100 µM. In the case of `O=C1Oc2ccccc2C(=O)/C1=C/N1C(=O)CNC1=S`, the TGI is reported as over 100 µM. `Cc1nn(C(=O)c2ccncc2)c2c1C(c1ccccc1[N+](=O)[O-])SC(N)=N2` (stereo unspecified) showed a TGI of over 10 µM. `Cn1nnc2c3c(N(CCO)CCO)ccnc3ccc21` was tested, and the TGI was over 100 µM. Work on `Cc1ccc(S(=O)(=O)N2CCSCCSCCSCCN(S(=O)(=O)c3ccc(C)cc3)CC2)cc1` yielded a TGI of over 100 µM. `CCCc1nc2c(n1CC)C(=O)c1ccccc1C2=O` gave a TGI of over 100 µM. With `C1CCCN(NC2=NCCO2)CC1` the TGI was over 100 µM. With `O=C1NCN(c2ccccc2)C12CCN(CC1COc3ccccc3O1)CC2` (stereo unspecified) the TGI was over 100 µM. With `CCOc1ccc(NC(=O)C(=O)Nn2c(N)nnc2N)cc1` the TGI was over 100 µM. `O=C1OC([C@H](O)c2cccnc2)c2ccccc21` (stereo partly specified) was tested, and the TGI was over 10 µM. Work on `CC(C)(C)O/N=C/c1cc(NC(=S)c2ccsc2)ccc1Cl` yielded a TGI of 26.1 µM. `CC(=O)/C(=C\I)c1ccccc1` gave a TGI of 5.35 µM. `C=CCN1CCC(c2cc(C(=O)OCC)[nH]c2-c2cc(C)no2)C1=O` (stereo unspecified) gave a TGI of over 100 µM. With `CC(=O)N1C(Nc2nccs2)CCN1c1ccccc1` (stereo unspecified) the TGI was over 10 µM. In the case of `Cc1cc(NS(=O)(=O)c2ccc(N=[N+]([O-])c3ccc(S(=O)(=O)Nc4cc(C)on4)cc3)cc2)no1`, the TGI is reported as over 100 µM. `Cc1ccc(S(=O)(=O)N/N=C2/CCC3(O)CC2(C)CCC2[C@H]3CC2(C)C)cc1` (stereo partly specified) was tested, and the TGI was 45.2 µM. Compound `CCCCCCCCCCCCOCC1(COCCCCCCCCCCCC)COC(c2ccc(N)cc2)OC1` has a TGI of over 100 µM. Work on `CC(C)OP(=O)(OC(C)C)C(C)(C)O` yielded a TGI of over 100 µM. For `Cc1cn(C2CC(N=[N+]=[N-])C(COP(=O)(O)OCC3OC(n4cc(F)c(=O)[nH]c4=O)CC3O)O2)c(=O)[nH]c1=O` (stereo unspecified), the TGI was over 37.2 µM. Work on `NC(=O)[N+](=CC(=S)Nc1ccccc1Cl)C(N)=O` yielded a TGI of over 100 µM.

What follows are compounds tested on OVCAR-8 ovarian (assay: DTP human tumour cell line panel, 48 h).
Work on `CCCCCCCCCCCCCCCCNC(=O)/C(=C\c1ccc(Cl)c(Cl)c1)NC(=O)c1ccccc1` yielded a TGI of over 100 µM. `O=C(Nc1ccccc1)OCCN=C1c2ccccc2CCc2ccccc21` was tested, and the TGI was over 100 µM. With `COc1cc2cc(C(=O)N3CC(CCl)c4ccc([N+](C)(C)Cc5ccccc5[N+](=O)[O-])cc43)[nH]c2c(OC)c1OC` (stereo unspecified) the TGI was over 25.5 µM. With `CC(C)[C@H]1NC(=O)[C@H]2N=C(S[C@H]2C)[C@@H]2CCCN2C(=O)[C@H](Cc2ccccc2)NC(=O)[C@@H]2CSC(=N2)[C@@H](Cc2ccccc2)NC(=O)[C@@H]2CSC1=N2` the TGI was over 50 µM. `COC(=O)/C=C/[C@@H]1[C@H](C)N1S(=O)(=O)c1ccc(C)cc1` (stereo partly specified) gave a TGI of over 100 µM. `COc1cc([C@@H]2c3cc4c(cc3[C@@H](Nc3ccc(Cl)cc3C(=O)c3ccccc3)[C@H]3COC(=O)[C@H]23)OCO4)cc(OC)c1OC` was tested, and the TGI was over 100 µM. For `O=C1Oc2ccccc2C(=O)/C1=C/N1C(=O)CNC1=S`, the TGI was over 100 µM. For `Cc1nn(C(=O)c2ccncc2)c2c1C(c1ccccc1[N+](=O)[O-])SC(N)=N2` (stereo unspecified), the TGI was over 10 µM. `Cn1nnc2c3c(N(CCO)CCO)ccnc3ccc21` was tested, and the TGI was over 100 µM.
